Patent US20210238139A1, “MODULATORS OF TRYPTOPHAN CATABOLISM” (E-Therapeutics PLC, priority 2018, published 2021)
Where “and” joins values, the source holds several entries; their conditions need not be identical. Equal values may be shown once.

What was measured:
[1] = test system: monocyte-derived dendritic cells; experiment: Cell viability / cytotoxicity in monocyte-derived dendritic cells (ATP, CellTiter Glo); type: cell-based, human; settings: 24 h, unit assumed
Protocol: (§1) Peripheral blood mononuclear cells are isolated from buffy coats from healthy volunteers by Lymphoprep density gradient centrifugation, followed by lysis of residual erythrocytes with isotonic buffer solution of ammonium chloride. CD14+ cells are isolated by positive selection using MACS® technology and CD14 MicroBeads (Miltenyi Biotec) according to manufacturer's instructions. The isolated monocytes are differentiated into dendritic cells by incubation for 5 days in RPMI-1640 medium supplemented with 10% fetal bovine serum (FBS), 50 ng/mL GM-CSF and 35 ng/mL IL-4. After 5 days the DCs are seeded in 96-well plates in DMEM supplemented with 10% charcoal stripped FBS, GM-CSF and IL-4. The following day cells are triggered with LPS and IFNγ. After 24 h of incubation medium is replaced with DMEM F-12 medium supplemented with 6 mg/mL L-tryptophan and 10% charcoal stripped FBS. Compounds are added to the cells and incubated for 24 h at 37° C., 5% CO2, 95% humidity. Compounds are tested at 7 consecutive 4-fold dilutions starting from 30 μM in duplicate.
(§2) At the end of incubation concentration of kynurenine in cell supernatants is determined by LC-MS/MS. In parallel, cell viability is assessed by measurement of ATP by use of CellTiter Glo assay (Promega) according to manufacturer's protocol.
Cell viability results are analysed in Microsoft Excel and expressed as fold change over untreated control.

SK-OV-3 cells = experiment: Effect of compounds on tryptophan catabolism in SK-OV-3 cell line (inhibition of kynurenine production, LC-MS/MS); type: cell-based; settings: Homo sapiens, SK-OV-3, 24 h, SK-OV-3 cell line, 24 h incubation, kynurenine in supernatant by LC-MS/MS; read-out: IC50 Ranges (ic50 values for inhibition of Kynurenine production)
Summary of the method: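 Kynurenine in supernatants quantified by LC-MS/MS after 24 h compound exposure (37 °C; top 30 μM, eight 3-fold steps, duplicate) in DMEM F-12 containing 6 mg/mL L-tryptophan. Cells pre-plated overnight in McCoy's 5A with 10% FBS. Viability checked in parallel by ATP luminescence.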

[2] = test system: monocyte-derived dendritic cells; experiment: Effect of compounds on tryptophan catabolism in monocyte-derived dendritic cells (kynurenine production); type: cell-based; settings: Homo sapiens, Dendritic cell; dendritic cells triggered with LPS and IFNγ, 24 h with compound
Protocol: as §1, §2
Inhibition of Kyn production is calculated using the following formula:
(1−(Kyn conc. cmpd.−Kyn conc. medium)/(Kyn conc. medium with cells−Kyn conc. medium))·100
IC50 values are determined using GraphPad Prism software 5.04 for Windows, by plotting percent of inhibition against log 10 concentrations of compounds using a four-parametric sigmoidal curve with a variable slope.

TDO2 enzyme = target: T1, TDO2 enzyme (Homo sapiens, UniProt P48775); experiment: TDO2 enzyme inhibition assay (hTDO2 assay kit, NFK-green); settings: TDO2 enzyme 50 nM, tryptophan 200 μM, top concentration 30 μM; read-out: TDO2 Biochemical assay IC50
T1 construct: purchased Netherlands Translational Research Center B.V. NTRC-hTDO-1K
T1 sequence (P48775 whole entry): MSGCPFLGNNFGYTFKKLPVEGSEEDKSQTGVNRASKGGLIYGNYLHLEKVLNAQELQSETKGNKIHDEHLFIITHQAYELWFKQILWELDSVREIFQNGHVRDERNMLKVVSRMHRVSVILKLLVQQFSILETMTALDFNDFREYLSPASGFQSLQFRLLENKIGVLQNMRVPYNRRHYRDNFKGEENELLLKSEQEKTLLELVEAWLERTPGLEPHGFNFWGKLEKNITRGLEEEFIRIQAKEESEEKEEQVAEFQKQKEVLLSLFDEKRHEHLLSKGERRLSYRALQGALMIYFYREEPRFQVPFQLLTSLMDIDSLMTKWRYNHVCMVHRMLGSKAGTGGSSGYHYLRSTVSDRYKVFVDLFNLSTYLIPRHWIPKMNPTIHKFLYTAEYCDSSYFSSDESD
Protocol: The effect of compounds on TDO2 enzymatic activity was assess by use of an hTDO2 assay kit (Netherlands Translational Research Center B.V., Cat #NTRC-hTDO-1K). TDO2 enzyme and tryptophan substrate are diluted in assay buffer. Compounds are tested at 8 consecutive 3-fold dilutions starting from 30 μM. 267 nL of compound is added per well of a 384-well plate followed by addition of 10 μL of assay buffer. TDO2 enzyme is added at a final concentration of 50 nM and pre-incubated for 60 min at room temperature in the dark. Tryptophan substrate solution is then added at final concentration of 200 μM to all wells and the plate incubated for 15 min at RT in the dark. Finally NFK-green reagent is added at ⅕ of total reaction volume and incubated for 4 h at RT in the dark. After incubation fluorescence is measured at Ex405 nm-Em535 nm using EnVision plate reader.
(§3) IC50 values are determined using GraphPad Prism software 5.04 for Windows by plotting percent of inhibition against log 10 concentrations of compounds using a four-parametric sigmoidal curve with a variable slope.

IDO1 enzyme = target: T2, IDO1 enzyme (Homo sapiens, UniProt P14902); experiment: IDO1 enzyme inhibition assay (hIDO assay kit, NFK-green); settings: IDO1 enzyme 25 nM, tryptophan 100 μM, top concentration 30 μM; read-out: IDO1 Biochemical assay IC50
T2 construct: purchased Netherlands Translational Research Center B.V. NTRC-hIDO-1K
T2 sequence (P14902 whole entry): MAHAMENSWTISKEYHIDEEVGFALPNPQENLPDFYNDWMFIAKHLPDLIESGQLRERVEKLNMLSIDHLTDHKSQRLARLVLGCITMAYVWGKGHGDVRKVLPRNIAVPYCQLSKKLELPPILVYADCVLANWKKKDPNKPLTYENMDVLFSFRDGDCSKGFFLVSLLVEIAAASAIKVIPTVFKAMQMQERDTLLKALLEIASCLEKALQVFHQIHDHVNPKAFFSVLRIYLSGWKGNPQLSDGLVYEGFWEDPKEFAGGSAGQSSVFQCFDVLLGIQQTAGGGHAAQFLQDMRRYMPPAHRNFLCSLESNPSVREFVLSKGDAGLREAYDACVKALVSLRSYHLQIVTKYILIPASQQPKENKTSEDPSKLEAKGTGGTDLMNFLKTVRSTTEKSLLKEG
Protocol: The effect of compounds on IDO1 enzymatic activity was assessed by use of a hIDO assay kit (Netherlands Translational Research Center B.V., Cat #NTRC-hIDO-1K). IDO1 enzyme and tryptophan substrate are diluted in assay buffer. Compounds are tested at 8 consecutive 3-fold dilutions starting from 30 μM. 267 nL of compound is added per well of a 384-well plate followed by addition of 10 μL of assay buffer. IDO1 enzyme is added at a final concentration of 25 nM and pre-incubated for 30 min at room temperature in the dark. Tryptophan substrate solution is then added at final concentration of 100 μM to all wells and the plate incubated for 60 min at RT in the dark. Finally NFK-green reagent is added at ⅕ of total reaction volume and incubated for 4 h at RT in the dark. After incubation fluorescence is measured at Ex405 nm-Em535 nm using EnVision plate reader.
as §3

## N#Cc1ccc(NC(=O)N(Cc2cccc(C(F)(F)F)c2)C2CCC2)cc1 [Compound 91, 3-(4-cyanophenyl)-1-cyclobutyl-1-[[3-(trifluoromethyl)phenyl]methyl]urea]
[1]
  Cell viability at 30 uM (% of untreated control): 71%
SK-OV-3 cells
  IC50: < 100 nM
[2]
  IC50: 36 nM

## CC#Cc1ccc(NC(=O)N(Cc2ccc(C)o2)C2CCCC2)cc1 [Compound 154]
TDO2 enzyme
  IC50: > 30000 nM
IDO1 enzyme
  IC50: > 30000 nM
SK-OV-3 cells
  IC50: < 100 nM

## Cc1ccc(CN(C(=O)Nc2ccc(C#CC(C)(C)O)cc2)C2CCCC2)o1 [Compound 109, 1-cyclopentyl-3-[4-(3-hydroxy-3-methyl-but-1-ynyl)phenyl]-1-[(5-methyl-2-furyl)methyl]urea]
TDO2 enzyme
  IC50: 6000 nM
IDO1 enzyme
  IC50: > 30000 nM
SK-OV-3 cells
  IC50: 1000 to 5000 nM

## O=C(Nc1ccc(Cl)cc1)N(Cc1cccs1)C1CCCC1 [Compound 56, 3-(4-chlorophenyl)-1-cyclopentyl-1-(2-thienylmethyl)urea]
[1]
  Cell viability at 30 uM (% of untreated control): 94%
SK-OV-3 cells
  IC50: < 100 nM
[2]
  IC50: 250 nM

## Cc1ccc(CN(C(=O)Nc2ccc(C3=CCN(C(=O)OC(C)(C)C)C3)cc2)C2CCCC2)o1 [Compound 158, tert-butyl 3-[4-[[cyclopentyl-[(5-methyl-2-furyl)methyl]carbamoyl]amino]phenyl]-2,5-dihydropyrrole-1-carboxylate]
TDO2 enzyme
  IC50: 6400 nM
IDO1 enzyme
  IC50: > 30000 nM
SK-OV-3 cells
  IC50: 500 to 1000 nM

## Cc1ccc(CN(C(=O)Nc2ccc(C#N)cc2)C2CCC2)o1 [Compound 84, 3-(4-cyanophenyl)-1-cyclobutyl-1-[(5-methyl-2-furyl)methyl]urea]
[1]
  Cell viability at 30 uM (% of untreated control): 108%
SK-OV-3 cells
  IC50: < 100 nM
[2]
  IC50: 180 nM

## N#Cc1ccc(NC(=O)N(Cc2cn3ccsc3n2)C2CCC2)cc1 [Compound 270, 3-(4-cyanophenyl)-1-cyclobutyl-1-(imidazo[2,1-b]thiazol-6-ylmethyl)urea]
IDO1 enzyme
  IC50: > 30000 nM
SK-OV-3 cells
  IC50: 500 to 1000 nM

## N#Cc1ccc(NC(=O)N(Cc2ccc3ncsc3c2)C2CCC2)cc1 [Compound 213, 1-(1,3-benzothiazol-6-ylmethyl)-3-(4-cyanophenyl)-1-cyclobutyl-urea]
IDO1 enzyme
  IC50: > 30000 nM
SK-OV-3 cells
  IC50: < 100 nM

## O=C(Nc1ccc(F)c(F)c1)N(Cc1ccc(F)c(C(F)(F)F)c1)C1CCCC1 [Compound 139, 1-cyclopentyl-3-(3,4-difluorophenyl)-1-[[4-fluoro-3-(trifluoromethyl)phenyl]methyl]urea]
[1]
  Cell viability at 30 uM (% of untreated control): 77%
SK-OV-3 cells
  IC50: < 100 nM
[2]
  IC50: 270 nM

## Cc1ccc(CN(C(=O)Nc2ccc(F)cc2)C2CCC2)o1 [Compound 82, 1-cyclobutyl-3-(4-fluorophenyl)-1-[(5-methyl-2-furyl)methyl]urea]
[1]
  Cell viability at 30 uM (% of untreated control): 85%
SK-OV-3 cells
  IC50: 100 to 500 nM
[2]
  IC50: 300 nM

## O=C(Nc1ccc(Cl)cc1)N(Cc1cn2ccsc2n1)C1CCC1 [Compound 269, 3-(4-chlorophenyl)-1-cyclobutyl-1-(imidazo[2,1-b]thiazol-6-ylmethyl)urea]
IDO1 enzyme
  IC50: > 30000 nM
SK-OV-3 cells
  IC50: 100 to 500 nM

## COCC#Cc1ccc(NC(=O)N(Cc2ccc(C)o2)C2CCCC2)cc1 [Compound 162, 1-cyclopentyl-3-[4-(3-methoxyprop-1-ynyl)phenyl]-1-[(5-methyl-2-furyl)methyl]urea]
TDO2 enzyme
  IC50: > 30000 nM
IDO1 enzyme
  IC50: > 30000 nM
SK-OV-3 cells
  IC50: < 100 nM

## Cc1ccc(CN(C(=O)Nc2ccc(Cl)cc2)c2cnoc2C)o1 [Compound 256, 3-(4-chlorophenyl)-1-[(5-methyl-2-furyl)methyl]-1-(5-methylisoxazol-4-yl)urea]
IDO1 enzyme
  IC50: > 30000 nM
SK-OV-3 cells
  IC50: < 100 nM

## O=C(Nc1ccc(F)c(F)c1)N(Cc1ccc(F)c(OC(F)(F)F)c1)C1CCCC1 [Compound 141, 1-cyclopentyl-3-(3,4-difluorophenyl)-1-[[4-fluoro-3 (trifluoromethoxy)phenyl]methyl]urea]
[1]
  Cell viability at 30 uM (% of untreated control): 90%
SK-OV-3 cells
  IC50: < 100 nM
[2]
  IC50: 470 nM

## Cc1ccc(CN(C(=O)NCCc2ccccc2)C2CCCC2)s1 [Compound 26, 1-cyclopentyl-1-[(5-methyl-2-thienyl)methyl]-3-(2-phenylethyl)urea]
[1]
  Cell viability at 30 uM (% of untreated control): 19%
SK-OV-3 cells
  IC50: < 100 nM
[2]
  IC50: 100 nM

## Cc1ccc(CN(C(=O)Nc2ccc(Cl)cc2)c2conc2C)o1 [Compound 277, 3-(4-chlorophenyl)-1-[(5-methyl-2-furyl)methyl]-1-(3-methylisoxazol-4-yl)urea]
IDO1 enzyme
  IC50: > 30000 nM
SK-OV-3 cells
  IC50: < 100 nM

## O=C(Nc1ccc(F)c(F)c1)N(Cc1cccc(C(F)(F)F)c1)C1CCCC1 [Compound 140, 1-cyclopentyl-3-(3,4-difluorophenyl)-1-[[3(trifluoromethyl)phenyl]methyl]urea]
[1]
  Cell viability at 30 uM (% of untreated control): 92%
SK-OV-3 cells
  IC50: < 100 nM
[2]
  IC50: 320 nM

## Cc1ccc(CN(C(=O)Nc2ccc(C#N)cc2)c2ccnn2C)o1 [Compound 215, 3-(4-cyanophenyl)-1-[(5-methyl-2-furyl)methyl]-1-(2-methylpyrazol-3-yl)urea]
IDO1 enzyme
  IC50: > 30000 nM
SK-OV-3 cells
  IC50: > 5000 nM

## Cn1nccc1N(Cc1ccc2ncsc2c1)C(=O)Nc1ccc(C#N)cc1 [Compound 276, 1-(1,3-benzothiazol-6-ylmethyl)-3-(4-cyanophenyl)-1-(2-methyl-iH-pyrazol-3-yl) urea]
IDO1 enzyme
  IC50: > 30000 nM
SK-OV-3 cells
  IC50: 1000 to 5000 nM

## N#Cc1ccc(NC(=O)N(Cc2cccc(C(F)(F)F)c2)C2CCCC2)cc1 [Compound 89, 3-(4-cyanophenyl)-1-cyclopentyl-1-[[3-(trifluoromethyl)phenyl]methyl]urea]
[1]
  Cell viability at 30 uM (% of untreated control): 81%
SK-OV-3 cells
  IC50: < 100 nM
[2]
  IC50: 65 nM

## COCC#Cc1ccc(NC(=O)N(Cc2ccc(C)o2)c2cnoc2C)cc1 [Compound 279, 3-[4-(3-methoxyprop-1-ynyl)phenyl]-1-[(5-methyl-2-furyl)methyl]-1-(5-methylisoxazol-4-yl)urea]
IDO1 enzyme
  IC50: > 30000 nM
SK-OV-3 cells
  IC50: < 100 nM

## Cc1ccc(CN(C(=O)Nc2ccc(C#N)cc2)c2cnoc2C)o1 [Compound 257, 3-(4-cyanophenyl)-1-[(5-methyl-2-furyl)methyl]-1-(5-methylisoxazol-4-yl)urea]
IDO1 enzyme
  IC50: > 30000 nM
SK-OV-3 cells
  IC50: < 100 nM

## Cc1ccc(CN(C(=O)Nc2ccc(C#CCO)cc2)C2CCCC2)o1 [Compound 111, 1-cyclopentyl-3-[4-(3-hydroxyprop-1-ynyl)phenyl]-1-[(5-methyl-2-furyl)methyl]urea]
TDO2 enzyme
  IC50: 4800 nM and 2200 nM
IDO1 enzyme
  IC50: > 30000 nM
SK-OV-3 cells
  IC50: < 100 nM

## N#Cc1cc(CN(C(=O)Nc2ccc(Cl)cc2)C2CCCC2)ccc1F [Compound 146, 3-(4-chlorophenyl)-1-[(3-cyano-4-fluoro-phenyl)methyl]-1-cyclopentyl-urea]
[1]
  Cell viability at 30 uM (% of untreated control): 103%
SK-OV-3 cells
  IC50: < 100 nM
[2]
  IC50: 120 nM

## CCc1ccc(NC(=O)N(Cc2cccs2)C2CCCC2)cc1 [Compound 3, 1-cyclopentyl-3-(4-ethylphenyl)-1-(2-thienylmethyl)urea]
TDO2 enzyme
  IC50: > 30000 nM
IDO1 enzyme
  IC50: > 30000 nM
SK-OV-3 cells
  IC50: 100 to 500 nM
